Consider 2 compounds from patent publication US6605644B2, “Analgesic regimen” (Ortho-McNeil Pharmaceutical, Inc., priority 1999, dated 2003).

Where a name gives a salt, the structure may show the parent alone.

Data set [1] is described as follows: Example 1: randomized double-blind study of 1-, 4- or 10-day titration to 200 mg/day in patients with chronic joint pain. To be noted: 10-day titration group (50 mg increments every 3 days to 200 mg/day) compared with 1-day and 4-day titration groups, 14 days. The data set is classed as in vivo. The procedure:
A total of 465 patients with chronic joint pain were enrolled in the study and randomized into one of four treatment groups for 14 days. Patients continued on their prestudy dose of NSAIDs while concurrently receiving tramadol or placebo. Tramadol groups were titrated at three different rates to achieve the study target dose of 200 mg/day. […] Discontinuation due to any adverse event was similarly analyzed. If the trend was statistically significant, pairwise comparisons were performed to determine the statistical significance between titration rates.
The study protocol was approved by an Institutional Review Board at each study site and informed consent regarding the risks and benefits of participation was obtained for all patients.
Patients with chronic joint pain who had been receiving a maintenance dose (±25%) of NSAID for at least 30 days, and who required additional pain relief, were randomized into three titration groups and a placebo group using a 2:2:2:1 randomization schedule. […]

The next data set deals with μ opioid receptors (Homo sapiens, UniProt P35372). The settings on record: cited from earlier work.
Sequence of μ opioid receptors (P35372 whole entry): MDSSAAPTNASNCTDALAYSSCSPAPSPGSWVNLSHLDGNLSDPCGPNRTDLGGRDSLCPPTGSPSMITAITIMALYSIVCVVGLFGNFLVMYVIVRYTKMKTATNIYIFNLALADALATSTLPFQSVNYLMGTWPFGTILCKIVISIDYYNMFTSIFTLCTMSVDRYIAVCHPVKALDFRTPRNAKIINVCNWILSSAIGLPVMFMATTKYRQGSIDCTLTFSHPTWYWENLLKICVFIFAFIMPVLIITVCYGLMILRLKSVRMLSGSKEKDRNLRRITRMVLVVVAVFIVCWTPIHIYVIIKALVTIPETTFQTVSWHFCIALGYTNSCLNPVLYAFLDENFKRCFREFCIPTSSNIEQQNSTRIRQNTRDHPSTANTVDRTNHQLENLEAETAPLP
For data set [2] the following is noted: cited from earlier work; for peak plasma concentration: mean±standard deviation.
For data set [3] the following is noted: cited from earlier work.
The nature of data set [4]: Example 2: open-label run-in and double-blind study of 10-, 16- or 13-day titration in subjects with chronic pain.
The mark [5] stands for this setting: single 100 mg oral dose, healthy subjects.
Where [6] appears, read: double-blind phase, 10-day titration group.
Where [7] appears, read: double-blind phase, 13-day titration group.
Where [8] appears, read: double-blind phase, 16-day titration group.

`COc1cccc(C2(O)CCCCC2CN(C)C)c1` (centres unmarked) [tramadol hydrochloride, 2-[(dimethylamino)methyl]-1-(3-methoxyphenyl)cyclohexanol]: the “discontinuations due to dizziness and/or vertigo, nausea and/or vomiting, and any other adverse event” value in data set [1] was “fewest discontinuations”. Besides, the “binding affinity to μ receptors” value on μ opioid receptors is “low-affinity binding”. Further, the “absorption after oral administration” value in data set [2] (oral administration) was “rapidly and almost completely absorbed”. Further, the peak plasma concentration in data set [2] (setting [5]) was 308 ± 78 ng/mL. Also, the “time of peak plasma concentration after administration” value in data set [2] (setting [5]) was “two”. In data set [3], the “bound to plasma proteins” value is on record as 20.2%. The “median time to discontinuation due to any adverse event” value in data set [4] (setting [6]) is listed as 9.0 days; in data set [4] (setting [7]) it was 6.5 days; in data set [4] (setting [8]) it was 6.0 days. Also, the entries for the “median time to discontinuation due to nausea and/or vomiting” value in data set [4] (setting [6]), in data set [4] (setting [7]) and in data set [4] (setting [8]) were 9.0 days, 5.5 days and 4.0 days, respectively. Also, the “mean reduction from baseline PVA scores” value came to 1.4 cm in data set [4] (double-blind phase, 10-day titration group (200 mg/day)); 1.6 cm in data set [4] (double-blind phase, 13-day titration group (150 mg/day)); 1.5 cm in data set [4] (double-blind phase, 16-day titration group (200 mg/day)); 2.1 cm in data set [4] (open-label/run-in phase, titrated to 200 mg/day over four days). In addition, the “advantage in cumulative proportion of subjects who discontinued due to nausea and/or vomiting” value in data set [4] (titration to 200 mg/day over 10 days versus over 16 days) was 20 percentage.

For the compound `CN(C)C[C@H]1CCCC[C@]1(O)c1cccc(O)c1` [mono-O-desmethyl tramadol, mono-O-desmethyltramadol], in data set [2] (setting [5]), the peak plasma concentration was 55 ± 20 ng/mL, the “terminal plasma elimination half-life” value is 7.4 ± 1.4 h and the “time of peak plasma concentration after administration” value is “approximately three”.
